From patent publication US8808717B2, “Control of ectoparasites” (priority 2007, dated 2014)

Legend:
tobacco budworm = settings: cited from earlier work
[1] = rat versus trout liver microsomes; cited from earlier work
southern corn rootworm = settings: cited from earlier work
[2] = test system: Larval-stage lone star ticks (Amblyomma americanum); assay: Dip survival assay (larval immersion microassay) against A. americanum larvae; assay type: in vivo; settings: submerged 30 minutes, counted after 24 hours
From the text: Activity Against A. Americanum Larvae in a Dip Survival Assay
Using a previously-described protocol that can effectively predict compound potency against adult ticks in the field (White, W H. et al., An in vitro larval immersion microassay for identifying and characterizing candidate acaricides. J Med Entomol. 2004 November; 41(6):1034-42), test compounds from a dimethyl sulfoxide (DMSO) stock or 2% DMSO alone were dispensed into a round-bottom 96-well plate and mixed with aqueous buffer containing 1% ethanol and 0.2% Triton X100. […] Larval-stage lone star ticks (Amblyomma americanum) were dispensed into the wells containing test compounds and submerged for 30 minutes. The ticks were subsequently dispensed into a tissue biopsy bag, which is allowed to dry for 1 hour. After drying, the bags were incubated at 25° with 95% humidity for 24 hours and the number of live and dead larvae were counted.

cotton aphids = settings: cited from earlier work
[3] = test system: ova from cat flea (Ctenocephalides felis); assay: Activity against C. felis ova (larval emergence in treated vials); assay type: in vivo
From the text: Activity Against C. Felis Ova
Evaluation of test compounds against flea ova is a commonly-used assay for the determination of commercial efficacy against these insect parasites (McTier T L et al., Evaluation of the effects of selamectin against adult and immature stages of fleas (Ctenocephalides felis felis) on dogs and cats. Vet Parasitol. 2000 Aug. 23; 91(3-4):201-12; Dryden M et al., Efficacy of a topically applied formulation of metaflumizone on cats against the adult cat flea, flea egg production and hatch, and adult flea emergence. Vet Parasitol. 2007 Dec. 15; 150(3):263-7). Compounds were dissolved in acetone and 100 μl of each solution was placed in 5 ml glass vials and allowed to air dry. Forty ova from cat flea (Ctenocephalides felis) that were less than 48 hours old as well as flea dirt (primarily adult flea fecal material and host dander) were placed in the vials. Vials were covered with paper towels to allow air exchange and incubated at 25° with 90% humidity for 5 days, and the number of larvae were counted.

mosquito larvae = settings: cited from earlier work
tobacco bud worm = settings: tobacco budworm; cited from earlier work
cabbage looper = settings: cited from earlier work
fish, mammals = settings: fish versus mammals; cited from earlier work

| Compound | activity (LC50) (tobacco budworm) | degradation by liver microsomes [1] | activity (LC50) (southern corn rootworm) | Number of live/total tick larvae 24 hours after treatment ([2]; concentration 0.001%) | Number of live/total tick larvae 24 hours after treatment ([2]; concentration 0.01%) | Number of live/total tick larvae 24 hours after treatment ([2]; concentration 0.05%) | LC50 (cotton aphids) [ppm] | Flea larvae emerging, percent of total eggs, from 40 ova after 5 days ([3]; 10 μg per vial) [%] | Number of flea larvae emerging from 40 ova after 5 days ([3]; 10 μg per vial) | Flea larvae emerging, percent of total eggs, from 40 ova after 5 days ([3]; 100 μg per vial) | Number of flea larvae emerging from 40 ova after 5 days ([3]; 100 μg per vial) | Flea larvae emerging, percent of total eggs, from 40 ova after 5 days ([3]; 1 mg per vial) | Number of flea larvae emerging from 40 ova after 5 days ([3]; 1 mg per vial) | LC50 (mosquito larvae) [ppm] | metabolism (tobacco bud worm) | LC50 (cabbage looper) [ppm] | toxicity (fish, mammals) |
| --- | --- | --- | --- | --- | --- | --- | --- | --- | --- | --- | --- | --- | --- | --- | --- | --- | --- |
| CC(C)(C)c1ccc(CCOc2ncnc3ccccc23)cc1 [Formula I, 4-tert-butylphenethyl quinazolin-4-yl ether] | greater than 400 ppm | degraded more extensively by rat liver microsomes than by trout liver microsomes | greater than 400 ppm | 23/80 | 0/51 | 0/48 | 2.6 | 10 | 4 | 2.5% | 1 | 2.5% | 1 | 0.725 | extensively metabolized | 188 | higher toxicity of the compound to fish than to mammals |
| CCc1nn(C)c(C(=O)NCc2ccc(C(C)(C)C)cc2)c1Cl [Formula II, 4-chloro-5-ethyl-2-methyl-N-[(4-tert-butylphenyl)methyl]pyrazole-3-carboxamide] |  |  |  | 38/85 | 0/77 | 0/69 |  | 17.5 | 7 | 2.5% | 1 | 2.5% | 1 |  |  |  |  |
| CCc1nn(C)c(C(=O)NCc2ccc(Oc3ccc(C)cc3)cc2)c1Cl [Formula IV, 4-chloro-3-ethyl-1-methyl-N-[4-(p-tolyloxy)benzyl]pyrazole-5-carboxamide] |  |  |  | 58/114 | 0/79 | 0/76 |  | 15 | 6 | 0 (0%) | 0 (0%) | 0 (0% ) | 0 (0% ) |  |  |  |  |
